# Measurements published in US10620222B2, “Electrified compositions for determining the risk of developing adolescent idiopathic scoliosis through the use of GI protein receptor” (CHU Sainte-Justine, priority 2008, dated 2020).
# Values joined by “and” are separate entries in the source; they are usually repeats but may differ in a detail not shown here. Equal entries are not always repeated.
# Key:
# [1] = test system: Gi protein-mediated pathway in MG63 osteoblast cell line; assay type: cell-based; settings: 100 ng/mL PTX 16 h, stimulation with 10 μM ligand, 37° C., 5 min
# Description: The ability of CDS to detect the relative part of the Gi protein-mediated pathway in melatonin signaling was determined by blocking this pathway with pertussis toxin (PTX). This toxin ADP-ribosylates the a subunit of the heterotrimeric Gi protein and thereby prevents its activity. The MG63 osteoblast cell line was serum-starved for 16 h in the absence or presence of 100 ng/mL of PTX to inhibit the αi subunit of Gi protein. […] Cellular responses were measured with CELLKEY™ label-free cellular analysis system as described in the Material and Methods section.
# [2] = test system: melatonin signaling in PBMCs; test: CDS response to iodomelatonin in PBMCs from control and IS subjects; assay type: cell-based, human
# Description: Blood samples were obtained from patients and control groups and collected in blood collection tubes containing EDTA and then centrifuged on a Ficoll-Plaque (GE Healthcare, Mississauga, ON, Canada) solution to obtain PBMCs (containing principally lymphocytes). PBMC fractions were preserved frozen in FBS with 10% DMSO and kept in liquid nitrogen until thawed and assayed. PBMCs were harvested from stock tissue culture flask and washed three times with assay buffer. Cells were isolated from the heparinized peripheral by ficoll-Hypaque density gradient centrifugation, and cultured in RPMI 1640 medium supplemented with 10% FBS, 100 μg/mL streptomycin and 1% of phytohemagglutinin. Following 48 h of incubation at 37° C./CO2 cells were washed three times with assay buffer and seeded into the CELLKEY™ label-free cellular analysis system small 96-well plates. Typically, an average of 1×10^5 cells to 1.5×10^5 were added to each well and allowed to settle for 30 min at room temperature. […] After the cells settled, the cell plate was placed on the instrument and experiments were initiated in the manner described below after the acquisition of 5 min of baseline measurements. All experiments were conducted at 28° C.
# (§1) The response induced by the various ligands to their receptors was measured by cellular dielectric spectroscopy (CDS) using the CELLKEY™ label-free cellular analysis technology. (MDS Sciex, San Francisco, Calif., USA). The CELLKEY™ label-free cellular analysis system integrates a proprietary impedance measurement system, custom 96-well microliter plate, onboard 96-well fluidics, and environment control and custom acquisition and analysis software in a full solution package (MDS Sciex) that is compatible with commercially available robotic platforms. Small voltage at 24 frequencies, from 1 KHz to 10 MHz, is applied to a monolayer of cells settled in a 96-well microplate containing electrodes at the bottom, and the resultant current is measured at an update rate of 2 s. […] Onboard fluid additions and exchanges are handled by 96-well head fluid delivery device with a range of 5-500 μL. In addition to the cell plate location, the CELLKEY™ label-free cellular analysis system includes two additional stations for 96- or 384-well compound plates. All aspects of assay set up, execution, and data acquisition and analysis are controlled by CELLKEY™ label-free cellular analysis software.
# PBMCs were isolated from control subjects, IS subjects as described in Example 2 above.
# [3] = test system: receptors coupled to Gi proteins expressed on osteoblasts; test: Cellular Dielectric Spectroscopy (CDS, CELLKEY) response to Gi-coupled receptor ligands in osteoblasts from control and AIS subjects; assay type: cell-based, human; settings: for dZiec value: n1, n2 of Exper. 1-3
# Description: Bone specimens were obtained intraoperatively from vertebras (varying from T3 to L4 according to the surgical procedure performed), while with trauma cases used as non-scoliotic controls bone specimens were obtained from other anatomical sites (tibia or femur, and in one case from an iliac crest biopsy). Osteoblasts and myoblasts isolated as previously described (Moreau A, Wang D S, Forget S et al. Melatonin Signaling Dysfunction in Adolescent Idiopathic Scoliosis. Spine 2004; 29:1772-81; Azeddine et al., 2007 Molecular determinants of melatonin signaling dysfunction in adolescent idiopathic scoliosis. Clin Orthop Relat Res. 2007, 462:45-52), were cultured at 37° C./5% CO2 in MEM supplemented with 10% fetal bovine serum (FBS) and 100 μg/mL streptomycin. Prior to the experiment, cells were seeded into the CELLKEY™ label-free cellular analysis system standard 96-well plates at a density of 5×10^4/well and grown for 24 h and incubated in standard conditions (37° C./5% CO2). In some plates, Pertussis toxin (100 ng/mL, Sigma, Oakville, ON, Canada) treatment was performed 16 h before the CDS assay. Following overnight incubation, plates were placed onto the CELLKEY™ label-free cellular analysis system and growth medium was exchanged to assay buffer (Hanks, Balanced Salt Solution containing 20 mM HEPES and 0.1% BSA) before starting the experiment. Cells were then allowed to equilibrate at room temperature for 30 min. Pre-addition measurements were made for 5 min to obtain a baseline reading. […] The quick update rate (2 s.) of the CELLKEY™ label-free cellular analysis system allows detection of these immediate changes in impedance. Impedance measurements were collected for 10 min to 15 min at 28° C. after ligand addition to monitor cellular responses to ligand interaction and to generate CELLKEY™ label-free cellular analysis system response profiles that are characteristic of the signaling mechanisms used.
# as §1
# The minimal (min) and maximal (max) values represent the mean of three independent measurements performed in duplicate (six values in total) for a given patient/control subject. […] Duplicates (n1 and n2) of three independent experiments are presented.
# [4] = PBMCs of control subjects, 300 μM, from FIG. 12A
# [5] = osteoblasts of control subjects, 300 μM ligand, from FIGS. 11A-11F
structure (smiles),measurement,setting,value
"COc1ccc2[nH]c(I)c(CCNC(C)=O)c2c1 [Iodomelatonin, 2-lodomelatonin]",inhibition extent of the CDS response by PTX treatment,[1],~90%
same,maximal magnitude of CDS response,"[2]; PBMCs from IS patients, 300 μM",110 ohms
same,minimum magnitude of CDS response,"[2]; PBMCs from IS patients, 300 μM",16 ohms
same,minimal magnitude of CDS response,"[2]; PBMCs from healthy volunteers, 300 μM",124 ohms
same,melatonin signaling response (CDS),"[2]; PBMCs from normal/healthy subjects, 300 μM",greater than 120 ohms
same,"Absolute dZiec, control value of max diff. (maximal control value)",[2]; [4],225
same,"Absolute dZiec, control value of min diff. (minimal control value)",[2]; [4],124
same,responsiveness of PBMCs from patients with IS compared to healthy volunteers,"[2]; PBMCs, FIG. 12A, melatonin data not shown",less responsive
same,"Absolute dZiec, Group 1, max diff. (group value)","[2]; PBMCs, Group 1 value of max diff., 300 μM, from FIG. 12A",16
same,"Absolute dZiec, Group 1, min diff. (group value)","[2]; PBMCs, Group 1 value of min diff., 300 μM, from FIG. 12A",36
same,"Absolute dZiec, Group 2, max diff. (group value)","[2]; PBMCs, Group 2 value of max diff., 300 μM, from FIG. 12A",49
same,"Absolute dZiec, Group 2, min diff. (group value)","[2]; PBMCs, Group 2 value of min diff., 300 μM, from FIG. 12A",75
same,"Absolute dZiec, Group 3, max diff. (group value)","[2]; PBMCs, Group 3 value of max diff., 300 μM, from FIG. 12A",86
same,"Absolute dZiec, Group 3, min diff. (group value)","[2]; PBMCs, Group 3 value of min diff., 300 μM, from FIG. 12A",110
same,mean of CDS response,"[2]; PBMCs, IS group 1, 300 μM",27.86±4.18 ohms
same,mean of CDS response,"[2]; PBMCs, IS group 2, 300 μM",65.71±3.42 ohms
same,mean of CDS response,"[2]; PBMCs, IS group 3, 300 μM",97.94±1.36 ohms
same,mean of CDS response,"[2]; PBMCs, control group, 300 μM",155.17±3.91 ohms
same,"CDS response, dependence on concentration","[3]; osteoblasts from both control and IS patients, FIGS. 4A-4C",concentration-dependent manner
same,dZiec value,"[3]; osteoblasts of AIS#1020 (Group 3), 300 μM ligand",69.57 and 66.57 and 85.25 and 97.25 and 83.71 and 74.11
same,dZiec value,"[3]; osteoblasts of AIS#1198 (Group 3 in Table II), 300 μM ligand",61.05 and 65.29 and 70.29 and 60.97 and 57.37
same,dZiec value,"[3]; osteoblasts of AIS#1385 (Group 2), 300 μM ligand",66.51 and 67.51 and 79.93 and 81.93 and 79.02 and 69.42
same,dZiec value,"[3]; osteoblasts of AIS#1468 (Group 3), 300 μM ligand",91.38 and 88.38 and 101.69 and 113.69 and 102.83 and 93.23
same,dZiec value,"[3]; osteoblasts of AIS#1474 (Group 1), 300 μM ligand",33.02 and 32.02 and 38.33 and 32.33 and 39.97 and 36.37
same,dZiec value,"[3]; osteoblasts of AIS#1488 (Group 1), 300 μM ligand",25.43 and 27.43 and 30.31 and 27.31 and 19.17 and 19.57
same,dZiec value,"[3]; osteoblasts of AIS#1513 (Group 3), 300 μM ligand",83.92 and 80.92 and 94.08 and 106.08 and 95.30 and 85.70
same,dZiec value,"[3]; osteoblasts of AIS#1550 (Group 2), 300 μM ligand",55.99 and 48.99 and 60.90 and 62.90 and 62.74 and 59.14
same,dZiec value,"[3]; osteoblasts of control CTR#60, 300 μM ligand",142.55/— and 139.55/— and 149.20/— and 161.20/— and 152.18/— and 142.58/—
same,dZiec value,"[3]; osteoblasts of control CTR#61, 300 μM ligand",130.88/— and 127.88/— and 138.31/— and 150.31/— and 140.90/— and 131.30/—
same,dZiec value,"[3]; osteoblasts of control CTR#69, 300 μM ligand",150.99/— and 147.99/— and 161.10/— and 173.10/— and 162.34/— and 152.74/—
same,"Absolute dZiec, control value of max diff. (maximal control value)",[3]; [5],159
same,"Absolute dZiec, control value of min diff. (minimal control value)",[3]; [5],120
same,"Absolute dZiec, Group 1, max diff. (group value)","[3]; osteoblasts, AIS Group 1 value of max diff., 300 μM ligand, from FIGS. 11A-11F",15
same,"Absolute dZiec, Group 1, min diff. (group value)","[3]; osteoblasts, AIS Group 1 value of min diff., 300 μM ligand, from FIGS. 11A-11F",35
same,"Absolute dZiec, Group 2, max diff. (group value)","[3]; osteoblasts, AIS Group 2 value of max diff., 300 μM ligand, from FIGS. 11A-11F",57
same,"Absolute dZiec, Group 2, min diff. (group value)","[3]; osteoblasts, AIS Group 2 value of min diff., 300 μM ligand, from FIGS. 11A-11F",84
same,"Absolute dZiec, Group 3, max diff. (group value)","[3]; osteoblasts, AIS Group 3 value of max diff., 300 μM ligand, from FIGS. 11A-11F",90
same,"Absolute dZiec, Group 3, min diff. (group value)","[3]; osteoblasts, AIS Group 3 value of min diff., 300 μM ligand, from FIGS. 11A-11F",101
same,magnitude of CDS response in IS osteoblasts vs control,"[3]; osteoblasts, FIGS. 4A-4C",significantly lower
